{"source": "patent US10738070B2", "about": "“Mannose-derived antagonists of FimH useful for treating disease” (Fimbrion Therapeutics, Inc., priority 2016, dated 2020)", "data": [{"target": "T1, FimH (Escherichia coli, UniProt Q1R2J4)", "T1 construct": "endogenous in cells; host or cells: E. coli UTI89 bacteria", "test": "Hemagglutination inhibition (HAI) assay with UTI89 bacteria and guinea pig red blood cells", "assay_type": "cell-based", "conditions": "concentration reducing bacterial agglutination of guinea pig red blood cells by greater than 90%; UTI89 bacteria", "experimental": "“HAI or EC>90” is that concentration of the FimH inhibitor/antagonist which reduces the bacterial agglutination of guinea pig red blood cells by greater than 90%.\nHAI Assay The hemagglutination inhibition (HAI) assay was performed with UTI89 bacteria and guinea pig red blood cells, as previously described (S. J. Hultgren, W. R. Schwan, A. J. Schaeffer, J. L. Duncan Infect. Immun. 1986, 54, 613-620). Compounds not listed were not tested.", "units": {"HAI titer EC>90": "µM"}, "values": [{"smiles": "Cc1cc(-c2ccc3cc[nH]c(=O)c3c2)cc(C)c1OC1OC(CO)C(O)C(O)C1O", "note": "[Example 38, 7-[4′-(α-D-mannopyranosyloxy)-3′,5′-dimethylphenyl]-1(2H)-iso-quinolinone]", "HAI titer EC>90": 0.266}, {"smiles": "CNC(=O)c1cc(C(=O)NCCCCCCNC(=O)CCCCC[N+]2=C(/C=C/C=C/C=C3/c4ccc5ccccc5c4C(C)(C)N3C)C(C)(C)c3ccc4ccccc4c32)cc(-c2ccc(OC3OC(CO)C(O)C(O)C3O)c(C)c2)c1", "note": "[Example 22, N^3-(Cyanine5.5)-4′-(α-D-mannopyranosyl)-N^5,3′-dimethyl-[1,1′biphenyl]-3,5-dicarboxamide chloride]", "HAI titer EC>90": 2}, {"smiles": "Cc1cc(-c2cccc3cnccc23)ccc1O[C@H]1O[C@H](CO)[C@@H](O)[C@H](O)[C@@H]1O", "note": "[Example 15, 5-[4′-(α-D-mannopyranosyloxy)-3′-methylphenyl]-isoquinoline]", "HAI titer EC>90": 0.062}, {"smiles": "Cc1cc(-n2cc(-c3ccccc3N)nn2)ccc1O[C@H]1O[C@H](CO)[C@@H](O)[C@H](O)[C@@H]1O", "note": "[Example 28, 2-methyl-4-[4-(2-aminophenyl)-1H-1,2,3-triazol-1-yl]phenyl α-D-mannopyranoside]", "HAI titer EC>90": 0.15}, {"smiles": "CNC(=O)c1cccc(-c2ccc(O[C@H]3O[C@H](CO)[C@@H](O)[C@H](O)[C@@H]3O)c(C#N)c2)c1", "note": "[Example 39, 4′-(α-D-mannopyranosyloxy)-3′-cyano-N-methyl-1,1′biphenyl-3-carboxamide]", "HAI titer EC>90": 0.188}, {"smiles": "Cc1cc(-n2cc(-c3cccc(C(=O)O)c3)nn2)ccc1O[C@H]1O[C@H](CO)[C@@H](O)[C@H](O)[C@@H]1O", "note": "[Example 5, 2-methyl-4-[4-(3-carboxyphenyl)-1H-1,2,3-triazol-1-yl]phenyl α-D-mannopyranoside]", "HAI titer EC>90": 0.062}, {"smiles": "Cc1cc(-c2ccnc(-c3ccnc(Cl)c3)c2)ccc1OC1OC(CO)C(O)C(O)C1O", "note": "[Example 6b, 4-[2′-(2″-chloropyrid-4″-yl)-pyrid-4′-yl]-2-methylphenyl α-D-mannopyranoside]", "HAI titer EC>90": 0.062}, {"smiles": "CS(=O)(=O)c1ccc(-c2ccc(O[C@H]3O[C@H](CO)[C@@H](O)[C@H](O)[C@@H]3O)c(Cl)c2)cc1", "note": "[Example 37, 3-chloro-4′-(methylsulfonyl)biphenyl-4-yl α-D-mannopyranoside]", "HAI titer EC>90": 0.15}, {"smiles": "CNC(=O)c1cc(C(=O)O)cc(-c2ccc(O[C@H]3O[C@H](CO)[C@@H](O)[C@H](O)[C@@H]3O)c(C)c2)c1", "note": "[Example 23, 4′-(α-D-mannopyranosyloxy)-3′-methyl-5-[(methylamino)carbonyl]-[1,1′biphenyl]-3-carboxylic acid]", "HAI titer EC>90": 0.032}, {"smiles": "Cc1cc(Oc2cccc(C#N)c2)c([N+](=O)[O-])cc1O[C@H]1O[C@H](CO)[C@@H](O)[C@H](O)[C@@H]1O", "note": "[Example 1, 3-[4-(α-D-mannopyranosyloxy)-5-methyl-2-nitrophenoxy]benzonitrile]", "HAI titer EC>90": 0.125}, {"smiles": "Cc1cc(-c2ccnc(Cl)c2)ccc1OC1OC(CO)C(O)C(O)C1O", "note": "[Example 6a, 4-(2′-chloropyrid-4′-yl)-2-methylphenyl α-D-mannopyranoside]", "HAI titer EC>90": 0.062}, {"smiles": "Cc1cc(-c2ccc3c(c2)C(=O)N(C(C)C)CC3)ccc1O[C@H]1O[C@H](CO)[C@@H](O)[C@H](O)[C@@H]1O", "note": "[Example 27, 2-isopropyl-3,4-Dihydro-7-[4′-(α-D-mannopyranosyloxy)-3′-methylphenyl]-1(2H)-isoquinolinone]", "HAI titer EC>90": 0.032}, {"smiles": "COC(=O)c1cncc(-c2ccc(O[C@H]3O[C@H](CO)[C@@H](O)[C@H](O)[C@@H]3O)c(C)c2)c1", "note": "[Example 11, 5-[4′-(α-D-mannopyranosyloxy)-3′-methylphenyl]-3-pyridinecarboxylic acid methyl ester]", "HAI titer EC>90": 0.032}, {"smiles": "Cc1cc(Oc2ccc3cccnc3c2)c([N+](=O)[O-])cc1O[C@H]1O[C@H](CO)[C@@H](O)[C@H](O)[C@@H]1O", "note": "[Example 36, 7-[4-(α-D-mannopyranosyloxy)-5-methyl-2-nitrophenoxy]quinoline]", "HAI titer EC>90": 0.5}, {"smiles": "Cc1cc(-c2cccc(C(=O)NCCCCCCNC(=O)CCCCC[N+]3=C(/C=C/C=C/C=C4/c5ccc6ccccc6c5C(C)(C)N4C)C(C)(C)c4ccc5ccccc5c43)c2)ccc1OC1OC(CO)C(O)C(O)C1O.[Cl-]", "note": "[Example 10, N-(Cyanine5.5)-4′-(α-D-mannopyranosyl)-3′-methyl-[1,1′biphenyl]-3-carboxamide chloride]", "HAI titer EC>90": 16}, {"smiles": "Cc1cc(-c2ccc3[nH]nc(N)c3c2)ccc1O[C@H]1O[C@H](CO)[C@@H](O)[C@H](O)[C@@H]1O", "note": "[Example 13, 5-[4′-(α-D-mannopyranosyloxy)-3′-methylphenyl]-1H-indazol-3-amine]", "HAI titer EC>90": 0.125}, {"smiles": "Cc1cc(-c2ccc3ccn(C(C)C)c(=O)c3c2)ccc1O[C@H]1O[C@H](CO)[C@@H](O)[C@H](O)[C@@H]1O", "note": "[Example 26, 2-isopropyl-7-[4′-(α-D-mannopyranosyloxy)-3′-methylphenyl]-1(2H)-isoquinolinone]", "HAI titer EC>90": 0.043}, {"smiles": "Cc1cc(-c2cncc(C(=O)NC(C)C)c2)ccc1O[C@H]1O[C@H](CO)[C@@H](O)[C@H](O)[C@@H]1O", "note": "[Example 9, 5-[4′-(α-D-mannopyranosyloxy)-3′-methylphenyl]-N-isopropyl-3-pyridinecarboxamide]", "HAI titer EC>90": 0.032}, {"smiles": "Cc1cc(-c2cccc3c(=O)[nH]ccc23)ccc1O[C@H]1O[C@H](CO)[C@@H](O)[C@H](O)[C@@H]1O", "note": "[Example 16, 5-[4′-(α-D-mannopyranosyloxy)-3′-methylphenyl]-1(2H)-isoquinolinone]", "HAI titer EC>90": 0.125}, {"smiles": "Cc1cc(-c2cccc(C(=O)N3CCOCC3)c2)ccc1O[C@H]1O[C@H](CO)[C@@H](O)[C@H](O)[C@@H]1O", "note": "[Example 7, 3-methyl-3′-(morpholin-4-ylcarbonyl)biphenyl-4-yl α-D-mannopyranoside]", "HAI titer EC>90": 0.25}, {"smiles": "Cc1cc(-c2cc3[nH]c(=O)[nH]c(=O)c3s2)ccc1O[C@H]1O[C@H](CO)[C@@H](O)[C@H](O)[C@@H]1O", "note": "[Example 25, 6-[4′-(α-D-mannopyranosyloxy)-3′-methylphenyl]-thieno[3,2-d]pyrimidine-2,4(1H,3H)-dione]", "HAI titer EC>90": 0.024}, {"smiles": "CC(=O)Nc1cccc(Oc2cc(C)c(O[C@H]3O[C@H](CO)[C@@H](O)[C@H](O)[C@@H]3O)cc2[N+](=O)[O-])c1", "note": "[Example 31, N-(3-[4-(α-D-mannopyranosyloxy)-5-methyl-2-nitrophenoxy]phenyl)acetamide]", "HAI titer EC>90": 0.5}, {"smiles": "CC(=O)Nc1ccccc1Oc1cc(C)c(O[C@H]2O[C@H](CO)[C@@H](O)[C@H](O)[C@@H]2O)cc1[N+](=O)[O-]", "note": "[Example 30, N-(2-[4-(α-D-mannopyranosyloxy)-5-methyl-2-nitrophenoxy]phenyl)acetamide]", "HAI titer EC>90": 1.5}, {"smiles": "Cc1cc(-c2cncc(C(=O)O)c2)ccc1O[C@H]1O[C@H](CO)[C@@H](O)[C@H](O)[C@@H]1O", "note": "[Example 24, 5-[4′-(α-D-mannopyranosyloxy)-3′-methylphenyl]-3-pyridinecarboxylic acid]", "HAI titer EC>90": 0.25}, {"smiles": "Cc1cc(Oc2ccc3ccncc3c2)c([N+](=O)[O-])cc1O[C@H]1O[C@H](CO)[C@@H](O)[C@H](O)[C@@H]1O", "note": "[Example 34, 7-[4-(α-D-mannopyranosyloxy)-5-methyl-2-nitrophenoxy]isoquinoline]", "HAI titer EC>90": 0.125}, {"smiles": "Cc1cc(-c2cccc(-c3nnn[nH]3)c2)ccc1O[C@H]1O[C@H](CO)[C@@H](O)[C@H](O)[C@@H]1O", "note": "[Example 18, 3-Methyl-3′-(2H-tetrazol-5-yl)[1,1′-biphenyl]-4-yl α-D-mannopyranoside]", "HAI titer EC>90": 0.125}, {"smiles": "Cc1cc(-c2ccc3[nH]nc(C)c3c2)ccc1O[C@H]1O[C@H](CO)[C@@H](O)[C@H](O)[C@@H]1O", "note": "[Example 12, 3-Methyl-5-[4′-(α-D-mannopyranosyloxy) 3′-methylphenyl]-1H-indazole]", "HAI titer EC>90": 0.062}, {"smiles": "Cc1cc(Oc2ccc(C#N)cc2)c([N+](=O)[O-])cc1O[C@H]1O[C@H](CO)[C@@H](O)[C@H](O)[C@@H]1O", "note": "[Example 32, 4-[4-(α-D-mannopyranosyloxy)-5-methyl-2-nitrophenoxy]benzonitrile]", "HAI titer EC>90": 0.5}, {"smiles": "Cc1cc(-c2cccc(C(=O)N3CCNCC3)c2)ccc1O[C@H]1O[C@H](CO)[C@@H](O)[C@H](O)[C@@H]1O", "note": "[Example 8, 3-methyl-3′-(piperazin-1-ylcarbonyl)biphenyl-4-yl α-D-mannopyranoside]", "HAI titer EC>90": 0.25}, {"smiles": "Cc1cc(Oc2ccccc2C#N)c([N+](=O)[O-])cc1O[C@H]1O[C@H](CO)[C@@H](O)[C@H](O)[C@@H]1O", "note": "[Example 35, 2-[4-(α-D-mannopyranosyloxy)-5-methyl-2-nitrophenoxy]benzonitrile]", "HAI titer EC>90": 1}, {"smiles": "CC(=O)Nc1ccc(Oc2cc(C)c(O[C@H]3O[C@H](CO)[C@@H](O)[C@H](O)[C@@H]3O)cc2[N+](=O)[O-])cc1", "note": "[Example 33, N-(4-[4-(α-D-mannopyranosyloxy)-5-methyl-2-nitrophenoxy]phenyl)acetamide]", "HAI titer EC>90": 0.25}, {"smiles": "Cc1cc(-n2cc(-c3ccccn3)nn2)ccc1O[C@H]1O[C@H](CO)[C@@H](O)[C@H](O)[C@@H]1O", "note": "[Example 3, 2-methyl-4-[4-(pyridin-2-yl)-1H-1,2,3-triazol-1-yl]phenyl α-D-mannopyranoside]", "HAI titer EC>90": 0.062}, {"smiles": "Cc1cc(-c2cccc3c(N)nccc23)ccc1O[C@H]1O[C@H](CO)[C@@H](O)[C@H](O)[C@@H]1O", "note": "[Example 17, 5-[4′-(α-D-mannopyranosyloxy)-3′-methylphenyl]-isoquinolin-1-amine]", "HAI titer EC>90": 0.062}]}]}
